Experimental data reported in US10144715B2, “Piperazine derivatives as liver X receptor modulators” (priority 2014, dated 2018).
Like-named read-outs stand apart in the source and are kept apart here.

Key:
LXR β LBD protein = LXR β LBD protein (Homo sapiens (Human), UniProt P55055); test: biochemical; type: binding
[1] = target: Gal4 DNA binding domain fused to the LBD of LXRβ in HEK293 cells (Homo sapiens (Human), UniProt P55055); test: cell-based
LXR α LBD protein = LXR α LBD protein (Homo sapiens (Human), UniProt Q13133); test: LXR α radioligand binding assay (SPA, competition with [3H]TO901317); details: read-out: LXRα Binding Ki
[2] = target: Gal4 DNA binding domain fused to the LBD of LXRα in HEK293 cells (Homo sapiens (Human), UniProt Q13133); test: LXR luciferase transcriptional reporter gene assay, agonist mode, LXRα; type: cell-based; details: for EC50: read-out: Cell LXRα EC50
[3] = Biological Test Example 1, read-out: LXRβ Binding Ki
[4] = Biological Test Example 2, agonist mode

Sequence of LXR α LBD protein (Q13133 209-447): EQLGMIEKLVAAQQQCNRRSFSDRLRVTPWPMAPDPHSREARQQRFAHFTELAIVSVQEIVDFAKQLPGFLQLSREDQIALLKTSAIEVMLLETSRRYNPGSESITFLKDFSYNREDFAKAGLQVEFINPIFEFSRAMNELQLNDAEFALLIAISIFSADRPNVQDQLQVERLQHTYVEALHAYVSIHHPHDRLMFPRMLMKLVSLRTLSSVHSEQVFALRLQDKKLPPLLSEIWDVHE
Sequence of Gal4 DNA binding domain fused to the LBD of LXRα in HEK293 cells (Q13133 209-447): as above
Sequence of Gal4 DNA binding domain fused to the LBD of LXRβ in HEK293 cells (P55055 222-460 limits assumed): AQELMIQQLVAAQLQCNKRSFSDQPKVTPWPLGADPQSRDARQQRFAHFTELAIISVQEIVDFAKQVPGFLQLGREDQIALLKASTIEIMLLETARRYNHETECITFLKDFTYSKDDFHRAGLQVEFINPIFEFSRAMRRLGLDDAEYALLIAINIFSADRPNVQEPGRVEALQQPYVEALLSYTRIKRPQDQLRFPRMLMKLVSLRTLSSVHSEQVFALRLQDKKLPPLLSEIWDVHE
Sequence of LXR β LBD protein (P55055 222-460 limits assumed): as above

SMILES | Ki (LXR β LBD protein; [3]) | EC50 [1] | Ki (LXR α LBD protein) | EC50 [2, 4] | Ki (LXR β LBD protein; read-out: LXRβ Binding Ki) | Cell LXRβ efficacy ([1]; agonist mode) | Cell LXRα efficacy [2] | EC50 ([2]; agonist mode) | Cell LXRβ efficacy [1] | EC50 [2] | Ki (LXR β LBD protein) | Cell LXRβ efficacy [1, 4] | EC50 ([1]; agonist mode, read-out: Cell LXRβ EC50) | EC50 ([1]; Biological Test Example 2, agonist mode, read-out: Cell LXRβ EC50)
CS(=O)(=O)c1cccc(N2CCN(CC3(F)CCN(CC(F)(F)F)CC3)[C@H](c3ccccc3)C2)c1 (single isomer, unassigned) [48-54] | 2390 nM | > 20000 nM | > 3330 nM | > 20000 nM |  |  |  |  |  |  |  |  |  | 
CC[C@H](O)c1cnc(N2CCN(c3ccc(F)c(S(C)(=O)=O)c3)C[C@H]2C(C)C)nc1C(F)(F)F (single isomer, unassigned) [12-6] |  | 289 nM | 266 nM |  | 22 nM | 289 (29) % | 2429 (43) % | 2430 nM |  |  |  |  |  | 
CC(C)[C@H]1CN(c2cccc(S(C)(=O)=O)c2)CCN1C[C@H]1CC[C@H](C(F)(F)F)OC1 (single isomer, unassigned) [Cpd No 49-6] |  | 114 nM | 216 nM |  | 46 nM |  | 442 (56) % |  | 114 (67) % | 442 nM |  |  |  | 
CC(C)[C@H]1CN(c2ccc(C#N)c(S(C)(=O)=O)c2)CCN1Cc1ccc(C(F)(F)F)cc1 [46-9, (S)-4-(3-isopropyl-4-(4-(trifluoromethyl)benzyl)piperazin-1-yl)-2-(methylsulfonyl)benzonitrile] |  | 1080 nM | > 3330 nM |  | 231 nM | 1078 (49) % | 2479 (57) % | 2480 nM |  |  |  |  |  | 
CS(=O)(=O)c1cccc(N2CCN(C[C@@H]3CCC(C(F)(F)F)OC3)[C@@H](c3ccc(F)cc3)C2)c1 (single isomer, unassigned) [49-12] |  | 522 nM | 1770 nM |  |  |  | 2637 (51) % |  |  | 2640 nM | 184 nM | 522 (25) % |  | 
Cc1nnc(-c2ccc(N3CCN(c4ncc(CO)c(C(F)(F)F)n4)[C@H](C(C)C)C3)cc2S(C)(=O)=O)o1 [11-9, (R)-(2-(2-isopropyl-4-(4-(5-methyl-1,3,4-oxadiazol-2-yl)-3-(methylsulfonyl)phenyl)piperazin-1-yl)-4-(trifluoromethyl)pyrimidin-5-yl)methanol] |  | 603 nM | 1970 nM |  | 247 nM | 603 (39) % | 3283 (31) % |  |  | 3280 nM |  |  |  | 
CC(C)[C@H]1CN(c2cccc(S(C)(=O)=O)c2)CCN1C[C@@H]1CC[C@H](C(F)(F)F)OC1 (single isomer, unassigned) [Cpd No 49-8] |  | 36 nM | 84 nM |  | 11 nM |  | 103 (79) % |  | 36 (93) % | 103 nM |  |  |  | 
CNS(=O)(=O)c1cc(N2CCN(c3ncc(C(C)O)c(C(F)(F)F)n3)[C@H](C(C)C)C2)ccc1F (stereo partly drawn) [12-8, 2-fluoro-5-((3R)-4-(5-(1-hydroxyethyl)-4-(trifluoromethyl)pyrimidin-2-yl)-3-isopropylpiperazin-1-yl)-N-methylbenzenesulfonamide] |  | 59 nM | 126 nM |  | 4 nM | 59 (46) % | 503 (56) % | 503 nM |  |  |  |  |  | 
CC(C)Oc1cc(C(F)(F)F)nc(N2CCN(c3ccc(F)c(S(C)(=O)=O)c3)C[C@H]2C(C)C)n1 [Cpd No 23-1, (R)-2-(4-(4-fluoro-3-(methylsulfonyl)phenyl)-2-isopropylpiperazin-1-yl)-4-isopropoxy-6-(trifluoromethyl)pyrimidine] |  | > 20000 nM | 1180 nM |  |  |  |  | > 20000 nM |  |  | 212 nM |  |  | 
NS(=O)(=O)c1cccc(N2CCN(C[C@H]3CC[C@@H](C(F)F)CC3)[C@H](c3ccccc3)C2)c1 (single isomer, unassigned) [48-22] |  |  | 1500 nM |  | 918 nM | 8% | 9061 (8) % |  |  | 9060 nM |  |  | 1190 nM | 
CS(=O)(=O)c1cc(N2CCN(C[C@H]3CC[C@@H](C(F)(F)F)CC3)[C@H](c3ccccc3Cl)C2)ccc1C(N)=O (single isomer, unassigned) [Cpd No 4-9] |  | 5050 nM | 3650 nM |  | 926 nM |  | 15695 (21) % |  | 5047 (31) % | 15700 nM |  |  |  | 
CC(C)[C@H]1CC[C@H](CN2CCN(c3ccc(CO)c(S(C)(=O)=O)c3)C[C@@H]2c2ccccc2)CC1 (single isomer, unassigned) [48-77] | 23 nM |  | 131 nM |  |  |  | 789 (53) % |  |  | 789 nM |  | 23% |  | 360 nM
